The source of these data is article PMC12430079, “Comprehensive UPLC-MS/MS Method for Quantifying Four Key Intestinal Permeability Markers in Caco-2 Models” (Molecules, 2025).

The subject of one data set is Caco-2 cells. The settings on record: 4 h, 37 °C.
A short description of another data set: physchem. As to conditions: Recovery under stability condition. As to the method:
These tests included assessing short-term stability at room temperature, long-term stability during storage at −20 °C for up to 45 days, and stability across three freeze-thaw cycles. Additionally, the stability of the analytes was tested in the media used for intestinal permeability assays, specifically HBSS with MES and HEPES buffers at pH 6.0 and 7.4.

The next data set relates to Caco-2 cell monolayer. As to conditions: Caco-2 monolayer, apical pH 6.0 / basolateral pH 7.4, 4 h, without verapamil as inhibitor.
A short description of a further data set: in vitro. As to conditions: human, Caco-2.

Read-outs that look alike come from different tables or passages of the source.

Take `CC(C)NCC(O)COc1ccc(CC(N)=O)cc1` (stereo not drawn) [Atenolol, atenolol]: the “Cytotoxicity (LDH release)” value in the data set with Caco-2 cells (50 µM) was “did not induce cytotoxicity”.
In the data set “physchem”, `CC(C)NCC(O)COc1cccc2ccccc12` (stereo not drawn) [Propranolol, propranolol] returned a recovery of 86.5 ± 21% and a recovery at 36 d of 87.7 ± 5.12%. Also, in the data set on Caco-2 cell monolayer, the “Apparent permeability (Papp) A→B” value is listed as “high” and the “Apparent permeability (Papp) B→A” value is reported as “high”. For the same compound, the “Cytotoxicity (LDH release)” value in the data set with Caco-2 cells (5 µM) is on record as “did not induce cytotoxicity”. Also, the efflux ratio in the data set “in vitro” was approximately 1.
In the case of `C=C[C@H]1C[N@@]2CC[C@H]1C[C@@H]2[C@@H](O)c1ccnc2ccc(OC)cc12` [Quinidine, quinidine], in the data set “physchem”, the recovery is 87.5 ± 6.3% and the recovery at 36 d was 86.2 ± 1.2%.

The term efflux ratio denotes the permeability from basolateral to apical divided by that in the opposite direction, in the common usage.
